The assay concerns Human keratinocytes (HatKat). Briefly: Growth of keratinocytes, cell count in Coulter counter after three days. It is filed as cell-based. The procedure:
Human keratinocytes (HatKat) were grown in keratinocyte growth medium (TCS Cellworks Ltd.) until 20% confluence. Then, in the same medium, the keratinocytes were grown for three days with 0.5% foetal calf serum (FCS), at which point the cells were counted in a Coulter® counter. The cell numbers obtained are set out in Table 3 below.

The source of these data is US20040014653A1, “Peptide composition” (priority 2000, published 2004).

In the case of “EGF: epidermal growth factor, comparator growth factor in keratinocyte growth test”, the “increase in the growth of keratinocytes (in words)” value (10 ng/mi EGF versus medium with 0.5% FCS) is “relatively modest increase”. Besides, the Number of cells (Medium with 0.5% FCS + 10 ng/ml EGF, three days) is reported as 29,356.
